{"source": "paper PMC9304322", "about": "“Targeting retinoic acid receptor alpha-corepressor interaction activates chaperone-mediated autophagy and protects against retinal degeneration” (Nature Communications, 2022)", "key": {"[1]": {"tested_on": "NIH3T3 cells", "assay": "Microarray transcriptional changes", "assay_type": "cell-based, mouse", "details": "NIH3T3; 20μM for 24 h", "method": "Total RNA of the treated cells was extracted using TRIzol (Invitrogen) and purified with RNeasy chromatography (Qiagen). Cy3-labeled RNA (0.6 μg) from each condition was hybridized to Agilent Mouse 8x60K. Data were processed using the oligo package and normalized using Robust Multiarray Average (RMA) method. […] Pathway analysis was performed using the STRING database ([…])."}, "[2]": {"tested_on": "rd10 mice", "assay": "rd10 mice, single intravitreal injection, retina histology", "assay_type": "in vivo, mouse", "details": "rd10 mice; individual values and Mean CA77", "method": "C57BL/6 J mice wild-type (WT) and homozygous for the Pde6 mutation (rd10 mouse model of retinal degeneration) were obtained from The Jackson Laboratory and experiments were performed at the age indicated in each part of the study. C57BL/6 KFERQ-Dendra mice were generated by back-crossing FVB KFERQ-Dendra mice with wild-type C57BL/6 mice for 8 generations. Both male and female animals were used in this study in equally distribution groups. However, results from both sexes were pooled, because of absence of significant differences in any of the parameters analyzed after statistical analysis with a mixed model of two-way ANOVA sex and treatment as independent variables and the corresponding measure as dependent variable. All animals were housed in a barrier-controlled facility (19–23 °C 30–60% relative humidity; 12 h light/dark cycle) with ad libitum access to standard chow pellets (protein 19 gm%/carbohydrate 67 gm%/fat 4 gm%) and water. For animal administration of CA compounds, a formula containing 30% PEG 400 (Sigma, #8.0745), 65% of 5% glucose solution, 5% Tween 80 (Sigma, #P1754) was used to dissolve them. CA compounds were prepared freshly by adding 5% DMSO and sonicating for 1 h. Treatment of KFERQ-Dendra mice with the CA compounds was done at 4 months of age by i.p. daily injection of 30 mg/kg bw or vehicle for three consecutive days and tissues collected 6 h after the last injection. In the case of rd10 mice, animals were daily injected from P18 to P25 with CA77 (40 mg/kg bw). In the case of intravitreal administration, a single intravitreal injection was applied at P18 with CA77 (40 µM) in DMSO/PBS and the contralateral eye was injected with PBS and DMSO at same concentration. At P26, mice were sacrificed and eyes fixed overnight with 4% PFA (Sigma, #P6148) in PBS at 4 °C for immunofluorescence or retinas dissected and immediately frozen for biochemistry. Distribution of animals in the vehicle or treatment group was done randomly. ICR (CD-1) outbred 3 months old male mice from ENVIGO were used for the pharmacokinetic studies (see pharmacokinetic section for housing and handling details). All animal studies and procedures complied with ethical regulations, were performed in accordance with the European Union guidelines and the ARVO Statement for the Use of Animals in Ophthalmic and Vision Research and were approved by the Institutional Animal Care and Use Committee at the Albert Einstein College of Medicine, the CSIC Bioetica Comite and approved by the Comunidad de Madrid, PROEX232/17.\n12 μm cryosections and immunofluorescence in retinal sections[10] after orienting retinas with a dorsal mark, so comparisons were performed taking into account the precise retinal area. Primary antibodies used in this study were visual (rod) arrestin, cone arrestin, Opsin R/G, transducin, GFAP, N-CoR1. Sections were visualized by confocal microscopy (TCS SP5; Leica Microsystems).\nFor ONL thickness quantification, DAPI images were taken at 40X in a fluorescence microscope Multidimensional system Leica AF6000 LX coupled to DMI600B microscope and Hamamatsu CCD 9100-O2 camera. At least two sections per animal were analyzed, preferably central sections. Eight images per retina equally distributed along the retina were acquired. Three measures were taken per image and ratio ONL/INL quantified with ImageJ tools. Leica LAS-X (3.7.4.23463) was used for image acquisition and ImageJ (v.2.1.0) was used for image processing. For OS length measures, fixed positions common to all pictures were considered and OS length was measured using ImageJ straight line tool.\nEyes were enucleated, put in a plate with cold PBS and an incision was made under the microscope to let the fixative enter into the eye. […]"}, "[3]": {"target": "T1, N-CoR1 and RARα (Mus musculus, UniProt P11416)", "T1 construct": "endogenous in cells; host or cells: NIH3T3", "T1 sequence (P11416 whole entry)": "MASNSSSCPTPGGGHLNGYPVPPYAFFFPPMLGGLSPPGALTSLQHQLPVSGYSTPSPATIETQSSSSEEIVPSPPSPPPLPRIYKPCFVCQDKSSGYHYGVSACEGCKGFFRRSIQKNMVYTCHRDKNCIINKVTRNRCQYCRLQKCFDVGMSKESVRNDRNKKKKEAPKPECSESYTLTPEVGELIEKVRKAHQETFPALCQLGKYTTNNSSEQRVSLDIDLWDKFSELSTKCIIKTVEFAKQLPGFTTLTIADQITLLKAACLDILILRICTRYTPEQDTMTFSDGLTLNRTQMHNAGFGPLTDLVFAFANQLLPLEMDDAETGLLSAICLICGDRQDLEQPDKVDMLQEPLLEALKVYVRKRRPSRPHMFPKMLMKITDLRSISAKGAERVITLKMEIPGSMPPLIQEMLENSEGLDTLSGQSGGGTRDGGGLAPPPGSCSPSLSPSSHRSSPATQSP", "T1 sequence (Q60974 whole entry partner)": "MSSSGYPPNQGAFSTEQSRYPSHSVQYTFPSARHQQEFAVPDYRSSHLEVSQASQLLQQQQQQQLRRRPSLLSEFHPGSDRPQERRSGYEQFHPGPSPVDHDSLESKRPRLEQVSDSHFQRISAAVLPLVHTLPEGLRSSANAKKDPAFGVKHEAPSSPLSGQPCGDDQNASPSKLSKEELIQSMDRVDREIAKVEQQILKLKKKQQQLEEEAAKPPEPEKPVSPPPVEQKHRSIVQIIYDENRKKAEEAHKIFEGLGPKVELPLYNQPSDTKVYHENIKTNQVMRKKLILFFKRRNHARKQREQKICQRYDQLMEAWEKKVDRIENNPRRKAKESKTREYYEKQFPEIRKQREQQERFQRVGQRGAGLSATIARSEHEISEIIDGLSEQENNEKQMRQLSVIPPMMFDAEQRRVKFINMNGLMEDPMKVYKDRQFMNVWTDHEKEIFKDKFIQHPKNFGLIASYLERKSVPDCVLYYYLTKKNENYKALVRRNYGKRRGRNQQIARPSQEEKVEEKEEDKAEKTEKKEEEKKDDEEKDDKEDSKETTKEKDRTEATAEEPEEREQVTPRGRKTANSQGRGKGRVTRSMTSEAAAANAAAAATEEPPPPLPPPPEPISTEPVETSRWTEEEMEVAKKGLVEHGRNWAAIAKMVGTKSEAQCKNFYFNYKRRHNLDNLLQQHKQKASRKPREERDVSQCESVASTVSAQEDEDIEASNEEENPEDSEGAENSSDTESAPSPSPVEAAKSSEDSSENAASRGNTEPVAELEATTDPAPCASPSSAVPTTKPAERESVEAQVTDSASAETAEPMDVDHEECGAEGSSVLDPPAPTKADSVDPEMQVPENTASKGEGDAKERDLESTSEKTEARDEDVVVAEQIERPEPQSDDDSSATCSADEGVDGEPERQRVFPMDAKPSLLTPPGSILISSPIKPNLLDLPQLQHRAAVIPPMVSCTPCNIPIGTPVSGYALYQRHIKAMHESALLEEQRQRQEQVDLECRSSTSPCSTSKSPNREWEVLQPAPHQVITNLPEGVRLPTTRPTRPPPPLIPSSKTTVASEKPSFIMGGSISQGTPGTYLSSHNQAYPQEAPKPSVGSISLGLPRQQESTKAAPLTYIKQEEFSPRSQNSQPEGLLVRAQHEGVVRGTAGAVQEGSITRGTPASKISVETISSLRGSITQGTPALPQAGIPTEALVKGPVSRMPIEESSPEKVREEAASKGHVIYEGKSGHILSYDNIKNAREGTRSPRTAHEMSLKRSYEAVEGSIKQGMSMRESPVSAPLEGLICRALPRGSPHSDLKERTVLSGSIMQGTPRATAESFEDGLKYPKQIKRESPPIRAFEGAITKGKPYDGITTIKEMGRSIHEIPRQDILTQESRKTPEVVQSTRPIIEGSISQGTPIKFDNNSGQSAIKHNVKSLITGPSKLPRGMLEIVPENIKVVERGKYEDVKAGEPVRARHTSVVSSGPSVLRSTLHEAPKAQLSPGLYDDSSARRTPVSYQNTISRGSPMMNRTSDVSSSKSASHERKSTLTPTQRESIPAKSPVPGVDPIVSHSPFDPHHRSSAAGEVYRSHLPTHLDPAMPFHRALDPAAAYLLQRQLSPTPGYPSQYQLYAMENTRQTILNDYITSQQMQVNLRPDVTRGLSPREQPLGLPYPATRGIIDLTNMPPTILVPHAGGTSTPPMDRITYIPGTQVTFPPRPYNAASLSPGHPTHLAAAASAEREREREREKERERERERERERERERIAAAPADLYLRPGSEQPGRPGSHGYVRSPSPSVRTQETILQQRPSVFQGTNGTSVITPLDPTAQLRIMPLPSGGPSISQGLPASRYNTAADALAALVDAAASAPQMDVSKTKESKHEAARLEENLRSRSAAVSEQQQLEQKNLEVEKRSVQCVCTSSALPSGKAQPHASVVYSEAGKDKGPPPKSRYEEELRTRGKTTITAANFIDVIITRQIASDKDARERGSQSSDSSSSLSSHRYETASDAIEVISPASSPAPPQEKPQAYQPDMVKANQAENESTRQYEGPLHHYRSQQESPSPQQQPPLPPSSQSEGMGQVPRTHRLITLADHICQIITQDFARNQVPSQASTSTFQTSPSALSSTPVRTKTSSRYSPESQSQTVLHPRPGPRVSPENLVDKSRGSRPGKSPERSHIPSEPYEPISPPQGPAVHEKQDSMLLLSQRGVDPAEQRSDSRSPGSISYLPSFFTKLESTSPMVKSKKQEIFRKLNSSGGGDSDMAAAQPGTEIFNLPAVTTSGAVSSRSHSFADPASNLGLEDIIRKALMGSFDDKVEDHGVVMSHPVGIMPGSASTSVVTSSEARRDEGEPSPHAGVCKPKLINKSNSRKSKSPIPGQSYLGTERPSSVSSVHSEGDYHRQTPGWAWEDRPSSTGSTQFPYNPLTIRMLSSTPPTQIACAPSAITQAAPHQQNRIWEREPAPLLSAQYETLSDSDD", "assay": "Streptavidin pulldown of biotin-CA, immunoblot for N-CoR1 and RARα", "assay_type": "cell-based", "details": "NIH3T3, 10 μM for 24 h"}, "[4]": {"tested_on": "NIH3T3 cells stably expressing the mCherry-GFP-LC3 reporter", "assay": "Macroautophagy activity, mCherry-GFP-LC3 reporter", "assay_type": "cell-based, mouse", "method": "Cells were transduced with a lentiviral vector expressing mCherry-GFP-LC3[35], fixed and flux determined as the conversion of dual fluorescence puncta (autophagosomes) into only red fluorescent puncta (autolysosomes). Flux was also measured by immunoblot for LC3 in cells incubated for 6 h with 20 mM NH4Cl/100 μM leupeptin, by discounting the intensity of LC3 in non-treated cells from that in cells treated with the inhibitors."}, "[5]": {"target": "T2, ligand binding domain (LBD) of the human RARα (residues 176-421) (human, UniProt P10276 176-421)", "T2 construct": "also called RARα LBD; retinoic acid receptor alpha; source: E. coli BL21(DE3) RIL, purified (Ni-NTA, ULP1 cleavage, subtractive Ni-NTA, Superdex 200); not shown: His6-SUMO, N-terminal, cleaved", "T2 sequence (looked up)": "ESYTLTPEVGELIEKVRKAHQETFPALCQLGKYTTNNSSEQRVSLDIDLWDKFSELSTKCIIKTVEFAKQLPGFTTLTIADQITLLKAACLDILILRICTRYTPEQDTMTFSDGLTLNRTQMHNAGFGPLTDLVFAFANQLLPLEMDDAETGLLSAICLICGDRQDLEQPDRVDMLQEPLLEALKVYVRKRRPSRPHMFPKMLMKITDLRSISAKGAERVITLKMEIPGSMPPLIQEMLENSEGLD", "assay": "fluorescence polarisation; FITC-N-CoR1 (5 nM) with serial two-fold dilutions of RARα LBD from 10 uM, without or with small molecules (10 uM: BMS, CA39, CA77); 20 mM Tris-HCl pH 7.5, 150 mM NaCl, 1 mM EDTA, 5 mM DTT, 10% glycerol; read at 30 min", "details": "both partners purified"}, "[6]": {"details": "c0 = 2 (axis unlabelled; ANOVA calls row factor Time)"}}, "note": "Values joined by “and” are separate entries in the source; they are usually repeats but may differ in a detail not shown here. Equal values may be shown once. Where no end group is shown, it is not given here. The star is where a group is joined. FITC = O=C1OC2(c3ccc(O)cc3Oc3cc(O)ccc32)c2ccc(NC(=S)*)cc21; Ahx = NCCCCCC(=O)O"}
{"molecule": "CC1(C)CC=C(c2cnc3ccccc3c2)c2cc(C(=O)Nc3ccc(C(=O)O)cc3)ccc21", "note": "[BMS614, reference compound]", "values": [{"measurement": "changes in the transcriptome", "setting": "[1]", "result": "marked changes in the transcriptome"}]}
{"molecule": "CC(=O)Nc1ccc(C2=Nc3ccc(Cl)cc3OC2)cc1", "note": "[CA 77]", "values": [{"measurement": "Fig. 7a, retinal measurement by eccentricity, eccentricity 1", "setting": "[2]", "result": "0.2752 and 0.2828 and 0.2675 and 0.4954 and 0.393 and 0.3603 and 0.3938"}, {"measurement": "Fig. 7a, retinal measurement by eccentricity, eccentricity 2", "setting": "[2]", "result": "0.3254 and 0.2696 and 0.3495 and 0.2864 and 0.4558 and 0.3792 and 0.723"}, {"measurement": "Fig. 7a, retinal measurement by eccentricity, eccentricity 3", "setting": "[2]", "result": "0.3333 and 0.3595 and 0.4443 and 0.4969 and 0.8558 and 0.7642 and 0.8417"}, {"measurement": "Fig. 7a, retinal measurement by eccentricity, eccentricity 4", "setting": "[2]", "result": "0.6989 and 0.5535 and 0.938 and 1.0799 and 0.9103 and 0.9911 and 0.7623"}, {"measurement": "Fig. 7a, retinal measurement by eccentricity, eccentricity -1", "setting": "[2]", "result": "0.7616 and 0.2157 and 0.1911 and 0.3575 and 0.223 and 0.305"}, {"measurement": "Fig. 7a, retinal measurement by eccentricity, eccentricity -2", "setting": "[2]", "result": "0.2825 and 0.2446 and 0.25 and 0.4552 and 0.7496 and 0.1825 and 0.2782"}, {"measurement": "Fig. 7a, retinal measurement by eccentricity, eccentricity -3", "setting": "[2]", "result": "0.4178 and 0.4298 and 0.7568 and 0.9291 and 0.9244 and 0.276 and 0.3979"}]}
{"molecule": "O=C(CCCCC1SCC2NC(=O)NC21)NCCCOCCOCCOCCCNC(=O)c1ccc(C2=Nc3ccc(Cl)cc3OC2)cc1", "note": "(stereo not shown) [biotinylated CA compound]", "values": [{"measurement": "co-immunoprecipitation of cellular RARα and N-CoR1", "setting": "[3]", "result": "could be co-immunoprecipitated"}]}
{"molecule": "CO[C@H]1C[C@@H]2CC[C@@H](C)[C@@](O)(O2)C(=O)C(=O)N2CCCC[C@H]2C(=O)O[C@H]([C@H](C)C[C@@H]2CC[C@@H](O)[C@H](OC)C2)CC(=O)[C@H](C)/C=C(\\C)[C@@H](O)[C@@H](OC)C(=O)[C@H](C)C[C@H](C)/C=C/C=C/C=C/1C", "note": "[rapamycin, reference compound]", "values": [{"measurement": "APG (Fig. S3e)", "setting": "[4]; [6]", "result": 1.605}, {"measurement": "AUT (Fig. S3e)", "setting": "[4]; [6]", "result": 1.965}, {"measurement": "AV (Fig. S3e)", "setting": "[4]; [6]", "result": 3.57}, {"measurement": "APG (Fig. S3e)", "setting": "[4]; c0 = 5 (axis unlabelled)", "result": 2.415}, {"measurement": "AUT (Fig. S3e)", "setting": "[4]; c0 = 5 (axis unlabelled)", "result": 2.129}, {"measurement": "AV (Fig. S3e)", "setting": "[4]; c0 = 5 (axis unlabelled)", "result": 4.544}, {"measurement": "APG (Fig. S3e)", "setting": "[4]; c0 = 10 (axis unlabelled)", "result": 3.3128}, {"measurement": "AUT (Fig. S3e)", "setting": "[4]; c0 = 10 (axis unlabelled)", "result": 3.752}, {"measurement": "AV (Fig. S3e)", "setting": "[4]; c0 = 10 (axis unlabelled)", "result": 7.064}, {"measurement": "APG (Fig. S3e)", "setting": "[4]; c0 = 20 (axis unlabelled)", "result": 5.184}, {"measurement": "AUT (Fig. S3e)", "setting": "[4]; c0 = 20 (axis unlabelled)", "result": 4.731}, {"measurement": "AV (Fig. S3e)", "setting": "[4]; c0 = 20 (axis unlabelled)", "result": 9.915}, {"measurement": "APG (Fig. S3e)", "setting": "[4]; c0 = 30 (axis unlabelled)", "result": 4.9183}, {"measurement": "AUT (Fig. S3e)", "setting": "[4]; c0 = 30 (axis unlabelled)", "result": 11.4046}, {"measurement": "AV (Fig. S3e)", "setting": "[4]; c0 = 30 (axis unlabelled)", "result": 16.3229}]}
{"molecule": "{FITC-Ahx}-RLITLADHICQIITQDFAR (peptide of nuclear receptor corepressor 1 (N-CoR1); also called FITC-N-CoR1; N-CoR1 peptide; source: synthetic peptide; bought: Genscript, purity > 95%)", "note": "[fluorescein-tagged peptide of N-CoR1, FITC-Ahx-RLITLADHICQIITQDFAR]", "values": [{"measurement": "binding result", "setting": "[5]", "result": "binds"}]}
